Results: ChEMBL document CHEMBL3112492, “Antiprotozoan lead discovery by aligning dry and wet screening: prediction, synthesis, and biological assay of novel quinoxalinones” (Bioorg Med Chem, 2014)
Active and inactive are the calls of the source. The rule behind the calls is not given here.

Test system: Leishmania braziliensis
Experiment: Antiprotozoal activity against metacyclic promastigote stage of Leishmania braziliensis MHOM/PE/95/LQ2 assessed as growth inhibition after 72 hrs by Alamar Blue assay
Type: functional, organism-based
Conditions: not given

Structure (SMILES) | growth inhibition (GI)
Br.CN1C(=O)CN(CCCCCN2CCCCCC2)c2ccc([N+](=O)[O-])cc21 | Dose-dependent effect
Br.CN1C(=O)CN(CCCCCN2CCc3ccccc3C2)c2ccc([N+](=O)[O-])cc21 | inactive
Br.O=C1CN(CCCCCN2CCCCC2)c2ccc([N+](=O)[O-])cc2N1 | Dose-dependent effect

Same assay, conditions: MHOM/PE/95/LQ2, 72 h

Structure (SMILES) | IC50 [µg/mL]
Br.CN1C(=O)CN(CCCCCN2CCCCCC2)c2ccc([N+](=O)[O-])cc21 | 5.3
Br.O=C1CN(CCCCCN2CCCCC2)c2ccc([N+](=O)[O-])cc2N1 | 64.6

Test system: Trichomonas vaginalis
Experiment: Trichomonastatic activity against Trichomonas vaginalis JH31A at 1 ug/ml after 48 hrs by Neubauer chamber analysis relative to control
Type: functional
Conditions: not given

Structure (SMILES) | Activity [%]
Br.CN1C(=O)CN(CCCCCN2CCCCCC2)c2ccc([N+](=O)[O-])cc21 | 2.87
Br.CN1C(=O)CN(CCCCCN2CCc3ccccc3C2)c2ccc([N+](=O)[O-])cc21 | 4.1
Br.O=C1CN(CCCCCN2CCCCC2)c2ccc([N+](=O)[O-])cc2N1 | 0

Test system: Trichomonas vaginalis
Experiment: Trichomonastatic activity against Trichomonas vaginalis JH31A at 1 ug/ml after 24 hrs by Neubauer chamber analysis relative to control
Type: functional
Conditions: not given

Structure (SMILES) | Activity [%]
Br.CN1C(=O)CN(CCCCCN2CCCCCC2)c2ccc([N+](=O)[O-])cc21 | 10.98
Br.CN1C(=O)CN(CCCCCN2CCc3ccccc3C2)c2ccc([N+](=O)[O-])cc21 | 4.71
Br.O=C1CN(CCCCCN2CCCCC2)c2ccc([N+](=O)[O-])cc2N1 | 0

Test system: Toxoplasma gondii
Experiment: Antiprotozoal activity against tachyzoite stage of Toxoplasma gondii RH assessed as viability at 200 uM after 4 hrs by trypan blue exclusion assay relative to control
Type: functional
Conditions: not given

Structure (SMILES) | Activity [%]
Br.CN1C(=O)CN(CCCCCN2CCCCCC2)c2ccc([N+](=O)[O-])cc21 | 77
Br.O=C1CN(CCCCCN2CCCCC2)c2ccc([N+](=O)[O-])cc2N1 | 68

Test system: Toxoplasma gondii
Experiment: Antiprotozoal activity against tachyzoite stage of Toxoplasma gondii RH assessed as extrusion of cytoplasmic content by light microscopic analysis
Type: functional, organism-based
Conditions: not given

Structure (SMILES) | Activity
Br.CN1C(=O)CN(CCCCCN2CCCCCC2)c2ccc([N+](=O)[O-])cc21 | Active
Br.O=C1CN(CCCCCN2CCCCC2)c2ccc([N+](=O)[O-])cc2N1 | Active

Test system: Toxoplasma gondii
Experiment: Antiprotozoal activity against tachyzoite stage of Toxoplasma gondii RH assessed as viability at 500 uM after 4 hrs by trypan blue exclusion assay relative to control
Type: functional
Conditions: not given

Structure (SMILES) | Activity [%]
Br.CN1C(=O)CN(CCCCCN2CCCCCC2)c2ccc([N+](=O)[O-])cc21 | 71
Br.O=C1CN(CCCCCN2CCCCC2)c2ccc([N+](=O)[O-])cc2N1 | 0

Test system: J774
Experiment: Cytotoxicity against mouse J774 cells at 1 ug/mL after 24 hrs by MTT assay
Type: cell-based
Conditions: j774, 24 h

Structure (SMILES) | Activity [%]
Br.O=C1CN(CCCCCN2CCCCC2)c2ccc([N+](=O)[O-])cc2N1 | 0

Test system: J774
Experiment: Cytotoxicity against mouse J774 cells at 10 ug/mL after 24 hrs by MTT assay
Type: cell-based
Conditions: j774, 24 h

Structure (SMILES) | Activity [%]
Br.CN1C(=O)CN(CCCCCN2CCCCCC2)c2ccc([N+](=O)[O-])cc21 | 20.24
Br.CN1C(=O)CN(CCCCCN2CCc3ccccc3C2)c2ccc([N+](=O)[O-])cc21 | 24.44
Br.O=C1CN(CCCCCN2CCCCC2)c2ccc([N+](=O)[O-])cc2N1 | 0

Test system: Plasmodium falciparum
Experiment: Antimalarial activity against intraerythrocytic asexual stage of Plasmodium falciparum 3D7 assessed as inhibition of [G-3H]-hypoxanthine uptake by semiautomated microdilution method
Type: functional, organism-based
Conditions: not given

Structure (SMILES) | IC50 [µg/mL]
Br.CN1C(=O)CN(CCCCCN2CCCCCC2)c2ccc([N+](=O)[O-])cc21 | > 10
Br.CN1C(=O)CN(CCCCCN2CCc3ccccc3C2)c2ccc([N+](=O)[O-])cc21 | 6.47
Br.O=C1CN(CCCCCN2CCCCC2)c2ccc([N+](=O)[O-])cc2N1 | > 10

Test system: Trichomonas vaginalis
Experiment: Trichomonastatic activity against Trichomonas vaginalis JH31A at 10 ug/ml after 48 hrs by Neubauer chamber analysis relative to control
Type: functional
Conditions: not given

Structure (SMILES) | Activity [%]
Br.CN1C(=O)CN(CCCCCN2CCCCCC2)c2ccc([N+](=O)[O-])cc21 | 70.41
Br.CN1C(=O)CN(CCCCCN2CCc3ccccc3C2)c2ccc([N+](=O)[O-])cc21 | 23.28
Br.O=C1CN(CCCCCN2CCCCC2)c2ccc([N+](=O)[O-])cc2N1 | 5.74

Test system: Acanthamoeba castellanii
Experiment: Antiprotozoal activity against trophozoite stage of Acanthamoeba castellanii Neff ATCC 30010 after 72 to 120 hrs by Alamar Blue assay
Type: functional
Conditions: Acanthamoeba castellanii str. Neff

Structure (SMILES) | Activity
Br.CN1C(=O)CN(CCCCCN2CCCCCC2)c2ccc([N+](=O)[O-])cc21 | inactive
Br.CN1C(=O)CN(CCCCCN2CCc3ccccc3C2)c2ccc([N+](=O)[O-])cc21 | inactive
Br.O=C1CN(CCCCCN2CCCCC2)c2ccc([N+](=O)[O-])cc2N1 | inactive

Test system: not listed separately
Experiment: Inhibition of ferriprotoporphyrin-9 biocrystallization by micro-ELISA
Conditions: not given

Structure (SMILES) | IC50 [µg/mL]
Br.CN1C(=O)CN(CCCCCN2CCCCCC2)c2ccc([N+](=O)[O-])cc21 | 1950
Br.CN1C(=O)CN(CCCCCN2CCc3ccccc3C2)c2ccc([N+](=O)[O-])cc21 | 950
Br.O=C1CN(CCCCCN2CCCCC2)c2ccc([N+](=O)[O-])cc2N1 | > 2000

Test system: Trypanosoma cruzi
Experiment: Trypanocidal activity against epimastigote stage of Trypanosoma cruzi CL Brener at 100 ug/mL after 72 hrs by beta-galactosidase reporter gene assay relative to control
Type: functional
Conditions: not given

Structure (SMILES) | Activity [%]
Br.CN1C(=O)CN(CCCCCN2CCCCCC2)c2ccc([N+](=O)[O-])cc21 | 65.46
Br.CN1C(=O)CN(CCCCCN2CCc3ccccc3C2)c2ccc([N+](=O)[O-])cc21 | 19.78
Br.O=C1CN(CCCCCN2CCCCC2)c2ccc([N+](=O)[O-])cc2N1 | 82.4

Test system: Trypanosoma cruzi
Experiment: Trypanocidal activity against epimastigote stage of Trypanosoma cruzi CL Brener at 10 ug/mL after 72 hrs by beta-galactosidase reporter gene assay relative to control
Type: functional
Conditions: not given

Structure (SMILES) | Activity [%]
Br.CN1C(=O)CN(CCCCCN2CCCCCC2)c2ccc([N+](=O)[O-])cc21 | 15.38
Br.CN1C(=O)CN(CCCCCN2CCc3ccccc3C2)c2ccc([N+](=O)[O-])cc21 | 15.62
Br.O=C1CN(CCCCCN2CCCCC2)c2ccc([N+](=O)[O-])cc2N1 | 17.68

Test system: Trichomonas vaginalis
Experiment: Trichomonacidal activity against Trichomonas vaginalis JH31A at 10 ug/ml after 24 hrs by Neubauer chamber analysis relative to control
Type: functional
Conditions: not given

Structure (SMILES) | Activity [%]
Br.CN1C(=O)CN(CCCCCN2CCCCCC2)c2ccc([N+](=O)[O-])cc21 | 91.61

Test system: Toxoplasma gondii
Experiment: Antiprotozoal activity against tachyzoite stage of Toxoplasma gondii RH assessed as viability at 100 uM after 4 hrs by trypan blue exclusion assay relative to control
Type: functional
Conditions: not given

Structure (SMILES) | Activity [%]
Br.CN1C(=O)CN(CCCCCN2CCCCCC2)c2ccc([N+](=O)[O-])cc21 | 81
Br.O=C1CN(CCCCCN2CCCCC2)c2ccc([N+](=O)[O-])cc2N1 | 92

Test system: Trichomonas vaginalis
Experiment: Trichomonastatic activity against Trichomonas vaginalis JH31A at 10 ug/ml after 24 hrs by Neubauer chamber analysis relative to control
Type: functional
Conditions: not given

Structure (SMILES) | Activity [%]
Br.CN1C(=O)CN(CCCCCN2CCc3ccccc3C2)c2ccc([N+](=O)[O-])cc21 | 70.98
Br.O=C1CN(CCCCCN2CCCCC2)c2ccc([N+](=O)[O-])cc2N1 | 20.94

Test system: Trypanosoma cruzi
Experiment: Trypanocidal activity against epimastigote stage of Trypanosoma cruzi CL Brener at 1 ug/mL after 72 hrs by beta-galactosidase reporter gene assay relative to control
Type: functional
Conditions: not given

Structure (SMILES) | Activity [%]
Br.CN1C(=O)CN(CCCCCN2CCCCCC2)c2ccc([N+](=O)[O-])cc21 | 0
Br.CN1C(=O)CN(CCCCCN2CCc3ccccc3C2)c2ccc([N+](=O)[O-])cc21 | 11.77
Br.O=C1CN(CCCCCN2CCCCC2)c2ccc([N+](=O)[O-])cc2N1 | 1.78

Test system: Trichomonas vaginalis
Experiment: Trichomonacidal activity against Trichomonas vaginalis JH31A at 100 ug/ml after 24 hrs by Neubauer chamber analysis relative to control
Type: functional
Conditions: not given

Structure (SMILES) | Activity [%]
Br.CN1C(=O)CN(CCCCCN2CCCCCC2)c2ccc([N+](=O)[O-])cc21 | 100
Br.CN1C(=O)CN(CCCCCN2CCc3ccccc3C2)c2ccc([N+](=O)[O-])cc21 | 100
Br.O=C1CN(CCCCCN2CCCCC2)c2ccc([N+](=O)[O-])cc2N1 | 99.37

Test system: Toxoplasma gondii
Experiment: Antiprotozoal activity against tachyzoite stage of Toxoplasma gondii RH assessed as viability at 1 mM after 4 hrs by trypan blue exclusion assay relative to control
Type: functional
Conditions: not given

Structure (SMILES) | Activity [%]
Br.CN1C(=O)CN(CCCCCN2CCCCCC2)c2ccc([N+](=O)[O-])cc21 | 0
Br.O=C1CN(CCCCCN2CCCCC2)c2ccc([N+](=O)[O-])cc2N1 | 0

Test system: J774
Experiment: Cytotoxicity against mouse J774 cells at 100 ug/mL after 24 hrs by MTT assay
Type: cell-based
Conditions: j774, 24 h

Structure (SMILES) | Activity [%]
Br.CN1C(=O)CN(CCCCCN2CCCCCC2)c2ccc([N+](=O)[O-])cc21 | 75.75
Br.CN1C(=O)CN(CCCCCN2CCc3ccccc3C2)c2ccc([N+](=O)[O-])cc21 | 99.44
Br.O=C1CN(CCCCCN2CCCCC2)c2ccc([N+](=O)[O-])cc2N1 | 3.36

Test system: Trichomonas vaginalis
Experiment: Trichomonacidal activity against Trichomonas vaginalis JH31A at 100 ug/ml after 48 hrs by Neubauer chamber analysis relative to control
Type: functional
Conditions: not given

Structure (SMILES) | Activity [%]
Br.CN1C(=O)CN(CCCCCN2CCCCCC2)c2ccc([N+](=O)[O-])cc21 | 100
Br.CN1C(=O)CN(CCCCCN2CCc3ccccc3C2)c2ccc([N+](=O)[O-])cc21 | 100
Br.O=C1CN(CCCCCN2CCCCC2)c2ccc([N+](=O)[O-])cc2N1 | 100
